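48-hour exposure; five concentrations; linearly interpolated endpoints. Here, GI50 denotes the concentration required for 50% inhibition of growth. At the TGI there is no net growth.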
Tests used:
Assay in all cases: growth of human tumour cells (NCI), 48 h
EKVX NSCLC = system: EKVX NSCLC
SK-MEL-5 melanoma = system: SK-MEL-5 melanoma
NCI-H522 lung = system: NCI-H522 lung
NCI-H23 lung = system: NCI-H23 lung
HCT-116 colon = system: HCT-116 colon
MCF7 breast = system: MCF7 breast
HOP-62 NSCLC = system: HOP-62 NSCLC
CAKI-1 renal = system: CAKI-1 renal
A498 renal = system: A498 renal
UO-31 renal = system: UO-31 renal

COC(=O)c1cc2c(cc1Cl)SC1=NN(C)S(=O)N1S2(=O)=O (stereo not given)
GI50 (EKVX NSCLC): > 100 µM
TGI (EKVX NSCLC): > 100 µM
GI50 (SK-MEL-5 melanoma): > 100 µM
TGI (SK-MEL-5 melanoma): > 100 µM
GI50 (NCI-H522 lung): > 100 µM
TGI (NCI-H522 lung): > 100 µM
GI50 (NCI-H23 lung): > 100 µM
TGI (NCI-H23 lung): > 100 µM
GI50 (HCT-116 colon): > 100 µM
TGI (HCT-116 colon): > 100 µM
GI50 (MCF7 breast): > 100 µM
TGI (MCF7 breast): > 100 µM
GI50 (HOP-62 NSCLC): > 100 µM
TGI (HOP-62 NSCLC): > 100 µM
GI50 (CAKI-1 renal): > 100 µM
TGI (CAKI-1 renal): > 100 µM
GI50 (A498 renal): 75 µM
TGI (A498 renal): > 100 µM
GI50 (UO-31 renal): 70.2 µM
TGI (UO-31 renal): > 100 µM

O=C(Nc1ccc(-n2ccc3c(NC(=O)c4ccccc4)ncnc32)cc1)c1cccc(C(F)(F)F)c1
GI50 (EKVX NSCLC): 6.38 µM
TGI (EKVX NSCLC): 22.7 µM
GI50 (SK-MEL-5 melanoma): 0.232 µM
TGI (SK-MEL-5 melanoma): 15.8 µM
GI50 (NCI-H522 lung): 1.87 µM
TGI (NCI-H522 lung): 20.6 µM
GI50 (NCI-H23 lung): 13.3 µM
TGI (NCI-H23 lung): 35.7 µM
GI50 (HCT-116 colon): 0.139 µM
TGI (HCT-116 colon): 15.9 µM
GI50 (MCF7 breast): 1.39 µM
TGI (MCF7 breast): 18.5 µM
GI50 (HOP-62 NSCLC): 10.9 µM
TGI (HOP-62 NSCLC): 24.4 µM
GI50 (CAKI-1 renal): 1.13 µM
TGI (CAKI-1 renal): > 44.6 µM
GI50 (A498 renal): 3.51 µM
TGI (A498 renal): 23.2 µM
GI50 (UO-31 renal): 3.42 µM
TGI (UO-31 renal): 21.7 µM

[O-][N+]1(CC[N+]2([O-])CCCCC2)CCCCC1
TGI (EKVX NSCLC): > 100 µM
TGI (SK-MEL-5 melanoma): > 100 µM
TGI (NCI-H522 lung): > 100 µM
TGI (NCI-H23 lung): > 100 µM
TGI (HCT-116 colon): > 100 µM
TGI (MCF7 breast): > 100 µM
TGI (HOP-62 NSCLC): > 100 µM
TGI (CAKI-1 renal): > 100 µM
TGI (A498 renal): > 100 µM
TGI (UO-31 renal): > 100 µM

CCCCCCCC(=O)OCCCC1[C@]2(C)CC[C@@]3(C)C([C@H](C)CCC=C(C)C)CC[C@]3(C)C2CC[C@]12OC2(C)C (stereo not given in full)
GI50 (EKVX NSCLC): 49.7 µM
TGI (EKVX NSCLC): > 100 µM
GI50 (SK-MEL-5 melanoma): 33.9 µM
TGI (SK-MEL-5 melanoma): > 100 µM
GI50 (NCI-H522 lung): 35.1 µM
TGI (NCI-H522 lung): > 100 µM
GI50 (NCI-H23 lung): 23.1 µM
TGI (NCI-H23 lung): 61.7 µM
GI50 (HCT-116 colon): 52.2 µM
TGI (HCT-116 colon): > 100 µM
GI50 (MCF7 breast): 34.1 µM
TGI (MCF7 breast): > 100 µM
GI50 (HOP-62 NSCLC): > 100 µM
TGI (HOP-62 NSCLC): > 100 µM
GI50 (CAKI-1 renal): 23.8 µM
TGI (CAKI-1 renal): 48.9 µM
GI50 (A498 renal): > 100 µM
TGI (A498 renal): > 100 µM
GI50 (UO-31 renal): 31.9 µM
TGI (UO-31 renal): > 100 µM

O=C(/C=C/c1ccc(C(F)(F)F)cc1)Nc1ccc(C=C2c3ccccc3C(=O)c3ccccc32)cc1
GI50 (EKVX NSCLC): 3.37 µM
TGI (EKVX NSCLC): > 100 µM
GI50 (SK-MEL-5 melanoma): 2.71 µM
TGI (SK-MEL-5 melanoma): 13.4 µM
GI50 (NCI-H522 lung): 2.36 µM
TGI (NCI-H522 lung): 25.4 µM
GI50 (NCI-H23 lung): 3.32 µM
TGI (NCI-H23 lung): > 100 µM
GI50 (HCT-116 colon): 4 µM
TGI (HCT-116 colon): > 100 µM
GI50 (MCF7 breast): 4.54 µM
TGI (MCF7 breast): > 100 µM
GI50 (HOP-62 NSCLC): 11.7 µM
TGI (HOP-62 NSCLC): 51.9 µM
GI50 (CAKI-1 renal): 3.39 µM
TGI (CAKI-1 renal): > 100 µM
GI50 (A498 renal): 2.6 µM
TGI (A498 renal): 52.8 µM
GI50 (UO-31 renal): 8.47 µM
TGI (UO-31 renal): > 100 µM

O=S1(=O)N(Cc2ccccc2)[C@@H](Cc2ccccc2)[C@H](O)[C@H](O)[C@H](Cc2ccccc2)N1Cc1ccccc1
GI50 (EKVX NSCLC): 3.43 µM
TGI (EKVX NSCLC): 9.86 µM
GI50 (SK-MEL-5 melanoma): 3.05 µM
TGI (SK-MEL-5 melanoma): 5.8 µM
GI50 (NCI-H522 lung): 0.847 µM
TGI (NCI-H522 lung): 4.79 µM
GI50 (NCI-H23 lung): 3.11 µM
TGI (NCI-H23 lung): 6.71 µM
GI50 (HCT-116 colon): 2.43 µM
TGI (HCT-116 colon): 5.05 µM
GI50 (MCF7 breast): 4.77 µM
TGI (MCF7 breast): 13.6 µM
GI50 (HOP-62 NSCLC): 3.71 µM
TGI (HOP-62 NSCLC): 7.34 µM
GI50 (CAKI-1 renal): 3.65 µM
TGI (CAKI-1 renal): 7.33 µM
GI50 (A498 renal): 2.45 µM
TGI (A498 renal): 5.18 µM
GI50 (UO-31 renal): 2.73 µM
TGI (UO-31 renal): 5.96 µM

O=C(Nc1ccc(F)cc1F)c1cc(Cl)ccc1O
GI50 (EKVX NSCLC): 1.94 µM
TGI (EKVX NSCLC): 8.38 µM
GI50 (SK-MEL-5 melanoma): 0.608 µM
TGI (SK-MEL-5 melanoma): 2.03 µM
GI50 (NCI-H522 lung): 0.974 µM
TGI (NCI-H522 lung): 10.8 µM
GI50 (NCI-H23 lung): 1.6 µM
TGI (NCI-H23 lung): 8.27 µM
GI50 (HCT-116 colon): 1.23 µM
TGI (HCT-116 colon): 3.31 µM
GI50 (MCF7 breast): 2.05 µM
TGI (MCF7 breast): > 100 µM
GI50 (HOP-62 NSCLC): 1.2 µM
TGI (HOP-62 NSCLC): 4.37 µM
GI50 (CAKI-1 renal): 1.31 µM
TGI (CAKI-1 renal): 5.51 µM
GI50 (A498 renal): 0.257 µM
TGI (A498 renal): 0.902 µM
GI50 (UO-31 renal): 1.15 µM
TGI (UO-31 renal): 6.18 µM

O=c1c2cc(-c3ccccc3)sc2ncn1Cc1ccc(Cl)c(Cl)c1
GI50 (EKVX NSCLC): 16.3 µM
TGI (EKVX NSCLC): > 100 µM
GI50 (SK-MEL-5 melanoma): 34.2 µM
TGI (SK-MEL-5 melanoma): > 100 µM
GI50 (NCI-H522 lung): 6.43 µM
TGI (NCI-H522 lung): 53.1 µM
GI50 (NCI-H23 lung): 17.3 µM
TGI (NCI-H23 lung): 44.2 µM
GI50 (HCT-116 colon): 15 µM
TGI (HCT-116 colon): 41.1 µM
GI50 (MCF7 breast): 12.1 µM
TGI (MCF7 breast): > 100 µM
GI50 (HOP-62 NSCLC): 10.3 µM
TGI (HOP-62 NSCLC): 24.7 µM
GI50 (CAKI-1 renal): 16.4 µM
TGI (CAKI-1 renal): 49.1 µM
GI50 (A498 renal): 19.4 µM
TGI (A498 renal): 50.3 µM
GI50 (UO-31 renal): 31.8 µM
TGI (UO-31 renal): > 100 µM

CCCn1cnc2c(SCC(=O)O)nc(N)nc21
TGI (EKVX NSCLC): > 100 µM
TGI (SK-MEL-5 melanoma): > 100 µM
TGI (NCI-H522 lung): > 100 µM
TGI (NCI-H23 lung): > 100 µM
TGI (HCT-116 colon): > 100 µM
TGI (MCF7 breast): > 100 µM
TGI (HOP-62 NSCLC): > 100 µM
TGI (CAKI-1 renal): > 100 µM
TGI (A498 renal): > 100 µM
TGI (UO-31 renal): > 100 µM

O=[N+]([O-])c1cccc(-c2nc(-c3ccccc3)c(-c3ccccc3)[nH]2)c1
TGI (EKVX NSCLC): > 100 µM
TGI (SK-MEL-5 melanoma): > 100 µM
TGI (NCI-H522 lung): > 100 µM
TGI (NCI-H23 lung): > 100 µM
TGI (HCT-116 colon): > 100 µM
TGI (MCF7 breast): > 100 µM
TGI (HOP-62 NSCLC): > 100 µM
TGI (CAKI-1 renal): > 100 µM
TGI (A498 renal): > 100 µM
TGI (UO-31 renal): > 100 µM

CN(C)c1nc(=NCc2ccco2)ss1
TGI (EKVX NSCLC): 64.3 µM
TGI (SK-MEL-5 melanoma): > 100 µM
TGI (NCI-H522 lung): 3.11 µM
TGI (NCI-H23 lung): 58 µM
TGI (HCT-116 colon): 35 µM
TGI (MCF7 breast): 33.1 µM
TGI (HOP-62 NSCLC): 62.8 µM
TGI (CAKI-1 renal): 49.1 µM
TGI (A498 renal): > 100 µM
TGI (UO-31 renal): 50.1 µM

CCOc1ccc2c(c1)C(=O)c1c-2n(CCCBr)c(=O)c2cc([N+](=O)[O-])ccc12
GI50 (EKVX NSCLC): 86.1 µM
TGI (EKVX NSCLC): > 100 µM
GI50 (SK-MEL-5 melanoma): 8.74 µM
TGI (SK-MEL-5 melanoma): 25.7 µM
GI50 (NCI-H522 lung): 5.74 µM
TGI (NCI-H522 lung): 72.8 µM
GI50 (NCI-H23 lung): 7.14 µM
TGI (NCI-H23 lung): > 100 µM
GI50 (HCT-116 colon): 5.98 µM
TGI (HCT-116 colon): > 100 µM
GI50 (MCF7 breast): 0.344 µM
TGI (MCF7 breast): 63.8 µM
GI50 (HOP-62 NSCLC): 5.81 µM
TGI (HOP-62 NSCLC): > 100 µM
GI50 (CAKI-1 renal): 8.15 µM
TGI (CAKI-1 renal): > 100 µM
GI50 (A498 renal): 36 µM
TGI (A498 renal): > 100 µM
GI50 (UO-31 renal): 2.9 µM
TGI (UO-31 renal): 13.6 µM

CCCCCN(CCCCC)CC(O)c1cc(Cl)ccc1OC (stereo not given)
GI50 (EKVX NSCLC): 6.39 µM
TGI (EKVX NSCLC): 22.3 µM
GI50 (SK-MEL-5 melanoma): 5.75 µM
TGI (SK-MEL-5 melanoma): 18.5 µM
GI50 (NCI-H522 lung): 1.98 µM
TGI (NCI-H522 lung): 15.2 µM
GI50 (NCI-H23 lung): 5.79 µM
TGI (NCI-H23 lung): 20.9 µM
GI50 (HCT-116 colon): 2.49 µM
TGI (HCT-116 colon): 12.6 µM
GI50 (MCF7 breast): 0.528 µM
TGI (MCF7 breast): 2.66 µM
GI50 (HOP-62 NSCLC): 12 µM
TGI (HOP-62 NSCLC): 26.7 µM
GI50 (CAKI-1 renal): 2.81 µM
TGI (CAKI-1 renal): 16.6 µM
GI50 (A498 renal): 11.6 µM
TGI (A498 renal): 29.3 µM
GI50 (UO-31 renal): 3.37 µM
TGI (UO-31 renal): 15.5 µM

CC(C)c1nc(N(C)S(C)(=O)=O)nc(-c2ccc(F)cc2)c1/C=C/[C@@H](O)C[C@@H](O)CC(=O)O
GI50 (EKVX NSCLC): > 100 µM
TGI (EKVX NSCLC): > 100 µM
GI50 (SK-MEL-5 melanoma): 52.7 µM
TGI (SK-MEL-5 melanoma): > 100 µM
GI50 (NCI-H522 lung): 21.5 µM
TGI (NCI-H522 lung): > 100 µM
GI50 (NCI-H23 lung): > 100 µM
TGI (NCI-H23 lung): > 100 µM
GI50 (HCT-116 colon): 59.5 µM
TGI (HCT-116 colon): > 100 µM
GI50 (MCF7 breast): > 100 µM
TGI (MCF7 breast): > 100 µM
GI50 (HOP-62 NSCLC): > 100 µM
TGI (HOP-62 NSCLC): > 100 µM
GI50 (CAKI-1 renal): 67.7 µM
TGI (CAKI-1 renal): > 100 µM
GI50 (A498 renal): 3.57 µM
TGI (A498 renal): 20.8 µM
GI50 (UO-31 renal): > 100 µM
TGI (UO-31 renal): > 100 µM
